# Laboratory results from patent US11434249B1, “ASK1 inhibitor compounds and uses thereof” (Seal Rock Therapeutics, Inc., priority 2018, dated 2022).
# Molecular target: ASK1 (Homo sapiens (Human), UniProt Q99683)
# Experiment: ASK1 Kinase Assay (Promega ASK1 Kinase Enzyme System, ADP-Glo luminescence)
# Format: biochemical
# Conditions: at 10 μM compound; enzyme 50 nM, ATP 10 μM
# Experimental: The ASK1 enzymatic assay was run following Promega ASK1 Kinase Enzyme System (Cat #V3881). The kit provides the protocol, enzymes and all reagents necessary to run an assay.
# The compounds, enzyme, substrate and ATP were diluted in provided assay buffer. The final concentration of the enzyme was 50 nM, substrate (Myelin basic protein) 1 μg/mL and ATP 10 μM. The compound and the enzyme were pre-incubated in a 384-well white solid bottom plate (Greiner, Cat #784075) for 10 minutes. After incubation, the substrate and ATP were added and incubated for an additional 60 minutes. After 60 minutes, ADP-Glo™ was added and the plate was incubated for another 40 minutes. After 40 minutes, Kinase Detection Reagent was added and the plate was incubated for 45 minutes. After 45 minutes, the plate was read on a Perkin Elmer EnVision using luminescence read (0.5 seconds/well).
# Sequence of ASK1 (Q99683 whole entry): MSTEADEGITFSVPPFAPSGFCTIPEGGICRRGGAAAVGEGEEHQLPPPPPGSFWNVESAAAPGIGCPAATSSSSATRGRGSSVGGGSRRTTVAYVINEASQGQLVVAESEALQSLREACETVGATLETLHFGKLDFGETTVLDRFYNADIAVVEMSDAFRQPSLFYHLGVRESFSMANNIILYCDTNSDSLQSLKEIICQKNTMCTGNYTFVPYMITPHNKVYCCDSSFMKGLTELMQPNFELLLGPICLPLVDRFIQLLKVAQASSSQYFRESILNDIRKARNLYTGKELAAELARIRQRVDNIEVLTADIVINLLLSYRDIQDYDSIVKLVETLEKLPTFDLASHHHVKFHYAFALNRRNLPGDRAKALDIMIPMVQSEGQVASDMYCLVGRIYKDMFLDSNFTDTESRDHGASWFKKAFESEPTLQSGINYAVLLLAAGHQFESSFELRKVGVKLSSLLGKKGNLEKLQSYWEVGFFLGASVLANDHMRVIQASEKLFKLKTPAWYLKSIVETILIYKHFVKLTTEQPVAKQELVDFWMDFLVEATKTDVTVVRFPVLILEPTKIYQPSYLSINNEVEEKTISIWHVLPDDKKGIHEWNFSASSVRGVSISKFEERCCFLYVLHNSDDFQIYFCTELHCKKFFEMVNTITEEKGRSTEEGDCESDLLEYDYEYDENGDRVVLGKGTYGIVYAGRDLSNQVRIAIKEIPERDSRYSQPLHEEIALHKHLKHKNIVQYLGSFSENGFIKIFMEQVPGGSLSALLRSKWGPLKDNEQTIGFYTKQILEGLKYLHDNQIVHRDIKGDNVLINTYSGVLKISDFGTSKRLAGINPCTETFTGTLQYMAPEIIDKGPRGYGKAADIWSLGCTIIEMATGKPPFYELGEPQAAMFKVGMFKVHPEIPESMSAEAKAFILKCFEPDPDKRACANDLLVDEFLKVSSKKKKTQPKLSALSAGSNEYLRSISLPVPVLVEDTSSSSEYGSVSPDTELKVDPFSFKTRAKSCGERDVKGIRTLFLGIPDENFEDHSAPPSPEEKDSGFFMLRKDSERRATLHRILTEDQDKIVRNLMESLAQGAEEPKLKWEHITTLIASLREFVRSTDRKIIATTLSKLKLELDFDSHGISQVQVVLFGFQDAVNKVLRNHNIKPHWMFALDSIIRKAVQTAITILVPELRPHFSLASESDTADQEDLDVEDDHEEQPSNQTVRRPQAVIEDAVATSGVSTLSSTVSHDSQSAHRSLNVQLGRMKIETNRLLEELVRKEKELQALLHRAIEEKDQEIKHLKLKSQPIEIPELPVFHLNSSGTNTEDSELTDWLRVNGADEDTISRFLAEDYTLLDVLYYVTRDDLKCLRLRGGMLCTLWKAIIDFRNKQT
row,inhibition at 10 µM,Structure (SMILES)
1,45%,"O=C1c2scc(-c3ccccc3)c2CN1c1cccc(-c2nncn2C2CC2)n1 [Example 7, 5-(6-(4-cyclopropyl-4H-1,2,4-triazol-3-yl)pyridin-2-yl)-3-phenyl-4,5-dihydro-6H-thieno[2,3-c]pyrrol-6-one]"

# Same assay, conditions: enzyme 50 nM, Myelin basic protein 1 μg/mL, ATP 10 μM
row,IC50,Structure (SMILES)
1,< 1000 nM,"O=C1c2scc(Br)c2CN1c1cccc(-c2nncn2C2CC2)n1 [Example 10, 3-bromo-5-(6-(4-cyclopropyl-4H-1,2,4-triazol-3-yl)pyridin-2-yl)-4,5-dihydro-6H-thieno[2,3-c]pyrrol-6-one]"
2,1000 to 10000 nM,"CC(C)CNc1csc2c1CN(c1cccc(-c3nncn3C3CC3)n1)C2=O [Example 11, 5-(6-(4-cyclopropyl-4H-1,2,4-triazol-3-yl)pyridin-2-yl)-3-(isobutylamino)-4,5-dihydro-6H-thieno[2,3-c]pyrrol-6-one]"
3,< 1000 nM,"O=C1c2sc3ccccc3c2CN1c1cccc(-c2nncn2C2CC2)n1 [Example 12, 2-(6-(4-cyclopropyl-4H-1,2,4-triazol-3-yl)pyridin-2-yl)-1,2-dihydro-3H-benzo[4,5]thieno[2,3-c]pyrrol-3-one]"
4,< 1000 nM,"COc1cc2c(s1)C(=O)N(c1cccc(-c3nncn3C3CC3)n1)C2 [Example 13, 5-(6-(4-cyclopropyl-4H-1,2,4-triazol-3-yl)pyridin-2-yl)-2-methoxy-4,5-dihydro-6H-thieno[2,3-c]pyrrol-6-one]"
5,< 1000 nM,"CC(C)n1cnnc1-c1cccc(N2Cc3ccsc3C2=O)n1 [Example 14, 5-(6-(4-isopropyl-4H-1,2,4-triazol-3-yl)pyridin-2-yl)-4,5-dihydro-6H-thieno[2,3-c]pyrrol-6-one]"

# Continued, compound first:
row,Structure (SMILES),IC50
1,"O=C1c2sccc2CN1c1cccc(-c2nncn2C2CC2)n1 [Example 1, 5-(6-(4-Cyclopropyl-4H-1,2,4-triazol-3-yl)pyridin-2-yl)-4,5-dihydro-6H-thieno[2,3-c]pyrrol-6-one]",< 1000 nM
2,"CC(=O)c1ccccc1-c1cc2c(s1)C(=O)N(c1cccc(-c3nncn3C3CC3)n1)C2 [Example 2, 2-(2-Acetylphenyl)-5-(6-(4-cyclopropyl-4H-1,2,4-triazol-3-yl)pyridin-2-yl)-4,5-dihydro-6H-thieno[2,3-c]pyrrol-6-one]",< 1000 nM
3,"O=C1c2sc(C3CCOCC3)cc2CN1c1cccc(-c2nncn2C2CC2)n1 [Example 4, 5-(6-(4-cyclopropyl-4H-1,2,4-triazol-3-yl)pyridin-2-yl)-2-(tetrahydro-2H-pyran-4-yl)-4,5-dihydro-6H-thieno[2,3-c]pyrrol-6-one]",< 1000 nM
4,"Cc1cc2c(s1)C(=O)N(c1cccc(-c3nncn3C3CC3)n1)C2 [Example 5, 5-(6-(4-cyclopropyl-4H-1,2,4-triazol-3-yl)pyridin-2-yl)-2-methyl-4,5-dihydro-6H-thieno[2,3-c]pyrrol-6-one]",< 1000 nM
5,"CCc1cc2c(s1)C(=O)N(c1cccc(-c3nncn3C3CC3)n1)C2 [Example 6, 5-(6-(4-cyclopropyl-4H-1,2,4-triazol-3-yl)pyridin-2-yl)-2-ethyl-4,5-dihydro-6H-thieno[2,3-c]pyrrol-6-one]",< 1000 nM
6,"Cc1csc2c1CN(c1cccc(-c3nncn3C3CC3)n1)C2=O [Example 9, 5-(6-(4-cyclopropyl-4H-1,2,4-triazol-3-yl)pyridin-2-yl)-3-methyl-4,5-dihydro-6H-thieno[2,3-c]pyrrol-6-one]",< 1000 nM
